Data from article PMC3535377 (Amino Acids, 2011).

Legend:
human TG6 (T021; Zedira) [1] = target: T1, human TG6 (T021; Zedira) (Homo sapiens, UniProt O95932); assay: fluorescence isopeptidase; format: biochemical
T1 sequence (O95932 1-706): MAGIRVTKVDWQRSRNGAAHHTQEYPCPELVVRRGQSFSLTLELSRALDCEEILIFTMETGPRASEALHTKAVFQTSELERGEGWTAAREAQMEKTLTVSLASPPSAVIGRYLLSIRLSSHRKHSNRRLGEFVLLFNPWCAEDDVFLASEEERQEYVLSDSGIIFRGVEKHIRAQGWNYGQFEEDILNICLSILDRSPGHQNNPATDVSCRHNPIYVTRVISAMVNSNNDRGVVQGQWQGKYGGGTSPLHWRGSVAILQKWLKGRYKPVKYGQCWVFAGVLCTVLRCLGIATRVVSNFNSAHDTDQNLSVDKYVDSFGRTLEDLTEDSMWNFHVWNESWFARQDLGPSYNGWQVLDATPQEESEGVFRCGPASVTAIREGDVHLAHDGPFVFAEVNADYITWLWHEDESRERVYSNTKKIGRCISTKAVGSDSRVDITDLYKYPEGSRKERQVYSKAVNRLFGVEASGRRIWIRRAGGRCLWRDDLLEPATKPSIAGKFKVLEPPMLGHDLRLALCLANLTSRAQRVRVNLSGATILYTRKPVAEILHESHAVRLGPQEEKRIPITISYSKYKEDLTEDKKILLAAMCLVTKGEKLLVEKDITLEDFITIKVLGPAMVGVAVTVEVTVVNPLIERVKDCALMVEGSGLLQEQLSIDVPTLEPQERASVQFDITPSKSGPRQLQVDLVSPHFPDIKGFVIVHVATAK

human TG6 (T021; Zedira) [2] = target: T1, human TG6 (T021; Zedira); assay: fluorescence isopeptidase; format: biochemical; details: 37°C, Ca2+-activated; allosteric

SMILES | IC50 (human TG6 (T021; Zedira) [1]) | half-maximal inhibition (human TG6 (T021; Zedira) [2])
Nc1ncnc2c1ncn2[C@@H]1O[C@H](COP(=O)(O)OP(=O)(O)OP(=O)(O)O)[C@@H](O)[C@H]1O [ATP] | ~1000 µM | –
Nc1nc2c(ncn2[C@@H]2O[C@H](COP(=O)(O)OP(=O)(O)O)[C@@H](O)[C@H]2O)c(=O)[nH]1 [GDP] | – | Activity of TG6 is inhibited to a similar degree by GTP and GDP
Nc1nc2c(ncn2[C@@H]2O[C@H](COP(=O)(O)O)[C@@H](O)[C@H]2O)c(=O)[nH]1 [GMP] | – | but the affinity for GMP is low
Nc1nc2c(ncn2[C@@H]2O[C@H](COP(=O)(O)OP(=O)(O)OP(=O)(O)O)[C@@H](O)[C@H]2O)c(=O)[nH]1 [GTP] | 200 µM | –
Nc1nc2c(ncn2[C@@H]2O[C@H](COP(=O)(O)OP(=O)(O)OP(O)(O)=S)[C@@H](O)[C@H]2O)c(=O)[nH]1 [GTPγS] | – | The non-hydrolyzable GTP analogue GTPγS is a more effective inhibitor than GTP
